Measurements: patent US10597388B2, “Pyridazinone herbicides” (FMC CORPORATION, priority 2014, dated 2020)

Columns and labels:
Assay in all cases: Test C greenhouse herbicide test, pre- and postemergence
Format in all cases: in vivo
[1] = test system: galium (catchweed bedstraw, Galium aparine)
From the text: (§1) Seeds of plant species selected from blackgrass (Alopecurus myosuroides), ryegrass, Italian (Italian ryegrass, Lolium multiflorum), wheat (winter wheat, Triticum aestivum), galium (catchweed bedstraw, Galium aparine), corn (Zea mays), large crabgrass, large (large crabgrass, Digitaria sanguinalis), foxtail, giant (giant foxtail, Setaria faberii), johnsongrass (Sorghum halepense), lambsquarters (Chenopodium album), morningglory (Ipomoea coccinea), nutsedge, yellow (yellow nutsedge, Cyperus esculentus), pigweed (Amaranthus retroflexus), ragweed (common ragweed, Ambrosia elatior), soybean (Glycine max), barnyardgrass (Echinochloa crus-galli), oilseed rape (Brassica napus), waterhemp (common waterhemp, Amaranthus rudis), and velvetleaf (Abutilon theophrasti) were planted into a blend of loam soil and sand and treated preemergence with test chemicals formulated in a non-phytotoxic solvent mixture which included a surfactant.
(§2) At the same time, plants selected from these crop and weed species and also chickweed (common chickweed, Stellaria media), kochia (Kochia scoparia), and oat, wild (wild oat, Avena fatua), were planted in pots containing Redi-Earth® planting medium (Scotts Company, 14111 Scottslawn Road, Marysville, Ohio 43041) comprising spaghnum peat moss, vermiculite, wetting agent and starter nutrients and treated with postemergence applications of test chemicals formulated in the same manner. Plants ranged in height from 2 to 18 cm (1- to 4-leaf stage) for postemergence treatments. Treated plants and controls were maintained in a greenhouse for 13 to 15 d, after which time all species were compared to controls and visually evaluated. Plant response ratings, summarized in Table C, are based on a scale of 0 to 100 where 0 is no effect and 100 is complete control. A dash (-) response means no test result.

[2] = test system: barnyardgrass (Echinochloa crus-galli)
From the text: as §1, §2

[3] = test system: nutsedge, yellow (yellow nutsedge, Cyperus esculentus)
From the text: as §1, §2

[4] = test system: johnsongrass (Sorghum halepense)
From the text: as §1, §2

[5] = test system: foxtail, giant (giant foxtail, Setaria faberii)
From the text: as §1, §2

[6] = test system: wheat (winter wheat, Triticum aestivum)
From the text: as §1, §2

[7] = test system: crabgrass, large (large crabgrass, Digitaria sanguinalis)
From the text: as §1, §2

[8] = test system: pigweed (Amaranthus retroflexus)
From the text: as §1, §2

[9] = test system: ragweed (common ragweed, Ambrosia elatior)
From the text: as §1, §2

[10] = test system: oilseed rape (Brassica napus)
From the text: as §1, §2

[11] = test system: velvetleaf (Abutilon theophrasti)
From the text: as §1, §2

[12] = test system: lambsquarters (Chenopodium album)
From the text: as §1, §2

soybean (Glycine max) = test system: soybean (Glycine max)
From the text: as §1, §2

[13] = test system: morningglory (Ipomoea coccinea)
From the text: as §1, §2

[14] = test system: waterhemp (common waterhemp, Amaranthus rudis)
From the text: as §1, §2

[15] = test system: blackgrass (Alopecurus myosuroides)
From the text: as §1, §2

[16] = Postemergence, 31 g ai/ha, 0 to 100 scale (0 no effect, 100 complete control)
[17] = Postemergence, 125 g ai/ha, scale 0 to 100, 0 is no effect, 100 is complete control
[18] = Postemergence, 250 g ai/ha, scale 0 to 100, 0 no effect, 100 complete control, 13 to 15 d
[19] = Preemergence, 31 g ai/ha, scale 0 to 100, 0 is no effect, 100 is complete control
[20] = Preemergence, 62 g ai/ha, scale 0 to 100, 0 is no effect, 100 is complete control
[21] = Preemergence, 125 g ai/ha, scale 0 to 100, 0 is no effect, 100 is complete control
[22] = Preemergence, 250 g ai/ha, scale 0 to 100 (0 no effect, 100 complete control)
[23] = postemergence, 62 g ai/ha, scale 0 to 100, 0 no effect, 100 complete control

COc1nn(C)c(=O)c(-c2c(C)ccc3ccccc23)c1OC(=O)OC(C)C [Compound 36]
Galium plant response rating [1, 16]: 90 | Plant response rating, Galium [1, 17]: 95 | Plant response rating, Galium [1, 18]: 95 | Plant response rating, Galium [1, 19]: 100 | Plant response rating, Galium [1, 20]: 100 | Plant response rating, Galium [1, 21]: 100 | Galium plant response rating [1, 22]: 100 | Galium plant response rating [1, 23]: 95 | Barnyardgrass plant response rating [2, 16]: 15 | Plant response rating, Barnyardgrass [2, 17]: 35 | Plant response rating, Barnyardgrass [2, 18]: 40 | Plant response rating, Barnyardgrass [2, 19]: 10 | Plant response rating, Barnyardgrass [2, 20]: 25 | Plant response rating, Barnyardgrass [2, 21]: 65 | Barnyardgrass plant response rating [2, 22]: 70 | Barnyardgrass plant response rating [2, 23]: 25 | Nutsedge, Yellow plant response rating [3, 16]: 20 | Plant response rating, Nutsedge, Yellow [3, 17]: 55 | Plant response rating, Nutsedge, Yellow [3, 18]: 65 | Plant response rating, Nutsedge, Yellow [3, 19]: 10 | Plant response rating, Nutsedge, Yellow [3, 20]: 20 | Plant response rating, Nutsedge, Yellow [3, 21]: 20 | Nutsedge, Yellow plant response rating [3, 22]: 65 | Nutsedge, Yellow plant response rating [3, 23]: 40 | Johnsongrass plant response rating [4, 16]: 0 | Plant response rating, Johnsongrass [4, 17]: 5 | Plant response rating, Johnsongrass [4, 18]: 5 | Plant response rating, Johnsongrass [4, 19]: 0 | Plant response rating, Johnsongrass [4, 20]: 5 | Plant response rating, Johnsongrass [4, 21]: 5 | Johnsongrass plant response rating [4, 22]: 5 | Johnsongrass plant response rating [4, 23]: 5 | Foxtail, Giant plant response rating [5, 16]: 30 | Plant response rating, Foxtail, Giant [5, 17]: 70 | Plant response rating, Foxtail, Giant [5, 18]: 80 | Plant response rating, Foxtail, Giant [5, 19]: 75 | Plant response rating, Foxtail, Giant [5, 20]: 75 | Plant response rating, Foxtail, Giant [5, 21]: 85 | Foxtail, Giant plant response rating [5, 22]: 85 | Foxtail, Giant plant response rating [5, 23]: 55 | Wheat plant response rating [6, 16]: 0 | Plant response rating, Wheat [6, 17]: 0 | Plant response rating, Wheat [6, 18]: 5 | Plant response rating, Wheat [6, 19]: 0 | Plant response rating, Wheat [6, 20]: 0 | Plant response rating, Wheat [6, 21]: 0 | Wheat plant response rating [6, 22]: 0 | Wheat plant response rating [6, 23]: 0 | Crabgrass, Large plant response rating [7, 16]: 25 | Plant response rating, Crabgrass, Large [7, 17]: 25 | Plant response rating, Crabgrass, Large [7, 18]: 35 | Plant response rating, Crabgrass, Large [7, 19]: 70 | Plant response rating, Crabgrass, Large [7, 20]: 20 | Plant response rating, Crabgrass, Large [7, 21]: 20 | Crabgrass, Large plant response rating [7, 22]: 65 | Crabgrass, Large plant response rating [7, 23]: 30 | Pigweed plant response rating [8, 16]: 70 | Plant response rating, Pigweed [8, 17]: 95 | Plant response rating, Pigweed [8, 18]: 100 | Plant response rating, Pigweed [8, 19]: 90 | Plant response rating, Pigweed [8, 20]: 100 | Plant response rating, Pigweed [8, 21]: 100 | Pigweed plant response rating [8, 22]: 100 | Pigweed plant response rating [8, 23]: 85 | Ragweed plant response rating [9, 16]: 90 | Plant response rating, Ragweed [9, 17]: 95 | Plant response rating, Ragweed [9, 18]: 95 | Plant response rating, Ragweed [9, 19]: 85 | Plant response rating, Ragweed [9, 20]: 90 | Plant response rating, Ragweed [9, 21]: 95 | Ragweed plant response rating [9, 22]: 95 | Ragweed plant response rating [9, 23]: 90 | Oilseed Rape plant response rating [10, 16]: 40 | Plant response rating, Oilseed Rape [10, 17]: 50 | Plant response rating, Oilseed Rape [10, 18]: 90 | Plant response rating, Oilseed Rape [10, 19]: 50 | Plant response rating, Oilseed Rape [10, 20]: 60 | Plant response rating, Oilseed Rape [10, 21]: 60 | Oilseed Rape plant response rating [10, 22]: 95 | Oilseed Rape plant response rating [10, 23]: 40 | Velvetleaf plant response rating [11, 16]: 65 | Plant response rating, Velvetleaf [11, 17]: 95 | Plant response rating, Velvetleaf [11, 18]: 95 | Plant response rating, Velvetleaf [11, 19]: 55 | Plant response rating, Velvetleaf [11, 20]: 80 | Plant response rating, Velvetleaf [11, 21]: 85 | Velvetleaf plant response rating [11, 22]: 90 | Velvetleaf plant response rating [11, 23]: 85 | Lambsquarters plant response rating [12, 16]: 90 | Plant response rating, Lambsquarters [12, 17]: 98 | Plant response rating, Lambsquarters [12, 18]: 100 | Plant response rating, Lambsquarters [12, 19]: 70 | Plant response rating, Lambsquarters [12, 20]: 80 | Plant response rating, Lambsquarters [12, 21]: 85 | Lambsquarters plant response rating [12, 22]: 80 | Lambsquarters plant response rating [12, 23]: 98 | Soybean plant response rating (soybean (Glycine max); [16]): 0 | Plant response rating, Soybean (soybean (Glycine max); [17]): 5 | Plant response rating, Soybean (soybean (Glycine max); [18]): 15 | Plant response rating, Soybean (soybean (Glycine max); [19]): 100 | Plant response rating, Soybean (soybean (Glycine max); [20]): 0 | Plant response rating, Soybean (soybean (Glycine max); [21]): 30 | Soybean plant response rating (soybean (Glycine max); [22]): 20 | Soybean plant response rating (soybean (Glycine max); [23]): 0 | Morningglory plant response rating [13, 16]: 90 | Plant response rating, Morningglory [13, 17]: 98 | Plant response rating, Morningglory [13, 18]: 100 | Plant response rating, Morningglory [13, 19]: 80 | Plant response rating, Morningglory [13, 20]: 80 | Plant response rating, Morningglory [13, 21]: 90 | Morningglory plant response rating [13, 22]: 95 | Morningglory plant response rating [13, 23]: 98 | Waterhemp plant response rating [14, 16]: 85 | Plant response rating, Waterhemp [14, 17]: 95 | Plant response rating, Waterhemp [14, 18]: 98 | Plant response rating, Waterhemp [14, 19]: 100 | Plant response rating, Waterhemp [14, 20]: 100 | Plant response rating, Waterhemp [14, 21]: 100 | Waterhemp plant response rating [14, 22]: 100 | Waterhemp plant response rating [14, 23]: 95 | Blackgrass plant response rating [15, 16]: 5 | Plant response rating, Blackgrass [15, 17]: 5 | Plant response rating, Blackgrass [15, 18]: 20 | Plant response rating, Blackgrass [15, 19]: 0 | Plant response rating, Blackgrass [15, 20]: 30 | Plant response rating, Blackgrass [15, 21]: 20 | Blackgrass plant response rating [15, 22]: 30 | Blackgrass plant response rating [15, 23]: 5
